These are literature values, as cited in US7341836B2, “Modified cyclic nucleotide gated ion channels” (The Regents of the University of Colorado, priority 2001, dated 2008).

One data set addresses T1, PDE II (Homo sapiens, UniProt O00408).
T1 construct: host or cells: heterologously expressed human PDE; human heart
Conditions: read-out: IC50, PDE II; cited from earlier work.

A further data set concerns the target PDE V (UniProt O76074). The conditions noted are these: cited from earlier work.
The target of a further data set is T2, PDE VII (UniProt Q9QXQ1).
T2 sequence (Q9QXQ1 1-446): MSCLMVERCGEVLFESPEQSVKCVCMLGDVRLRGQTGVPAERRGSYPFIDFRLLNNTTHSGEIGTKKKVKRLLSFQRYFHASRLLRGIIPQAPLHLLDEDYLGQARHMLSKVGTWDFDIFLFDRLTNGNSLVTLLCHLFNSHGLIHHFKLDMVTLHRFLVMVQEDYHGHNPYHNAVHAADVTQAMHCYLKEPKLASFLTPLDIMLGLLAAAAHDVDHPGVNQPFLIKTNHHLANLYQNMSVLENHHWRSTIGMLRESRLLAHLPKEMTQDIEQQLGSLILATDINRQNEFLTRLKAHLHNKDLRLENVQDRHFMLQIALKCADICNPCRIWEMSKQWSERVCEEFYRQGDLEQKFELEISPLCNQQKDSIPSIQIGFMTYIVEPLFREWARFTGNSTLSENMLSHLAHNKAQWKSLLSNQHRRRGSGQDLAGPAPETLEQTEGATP
Conditions: cited from earlier work.

The next data set has as its target T3, PDE VIII (Mus musculus, UniProt O88502).
T3 construct: host or cells: heterologously expressed
T3 sequence (O88502 1-823): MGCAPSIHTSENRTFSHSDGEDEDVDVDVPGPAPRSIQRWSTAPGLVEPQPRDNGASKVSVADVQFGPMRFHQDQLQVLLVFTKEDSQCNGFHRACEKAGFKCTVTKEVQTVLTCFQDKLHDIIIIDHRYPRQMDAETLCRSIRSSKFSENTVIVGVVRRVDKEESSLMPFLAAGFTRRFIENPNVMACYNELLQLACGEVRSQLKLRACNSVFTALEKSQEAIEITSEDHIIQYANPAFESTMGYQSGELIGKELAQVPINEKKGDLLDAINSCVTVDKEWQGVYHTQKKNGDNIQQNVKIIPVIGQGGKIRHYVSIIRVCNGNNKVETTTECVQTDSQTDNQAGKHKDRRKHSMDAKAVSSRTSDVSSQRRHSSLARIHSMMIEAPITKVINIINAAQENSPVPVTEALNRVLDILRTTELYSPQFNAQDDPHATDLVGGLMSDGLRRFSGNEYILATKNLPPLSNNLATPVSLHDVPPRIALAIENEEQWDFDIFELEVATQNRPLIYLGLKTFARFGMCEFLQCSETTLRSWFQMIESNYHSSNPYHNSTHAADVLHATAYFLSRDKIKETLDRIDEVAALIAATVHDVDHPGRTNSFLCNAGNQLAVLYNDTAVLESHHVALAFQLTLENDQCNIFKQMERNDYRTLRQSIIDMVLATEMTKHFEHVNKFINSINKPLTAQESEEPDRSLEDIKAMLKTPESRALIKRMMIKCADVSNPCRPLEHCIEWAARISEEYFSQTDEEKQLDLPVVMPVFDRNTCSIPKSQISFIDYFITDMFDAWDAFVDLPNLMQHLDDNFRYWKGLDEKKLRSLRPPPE
The conditions noted are these: cited from earlier work.

A further data set deals with T4, PDE IX (UniProt O70628).
T4 sequence (O70628 1-534): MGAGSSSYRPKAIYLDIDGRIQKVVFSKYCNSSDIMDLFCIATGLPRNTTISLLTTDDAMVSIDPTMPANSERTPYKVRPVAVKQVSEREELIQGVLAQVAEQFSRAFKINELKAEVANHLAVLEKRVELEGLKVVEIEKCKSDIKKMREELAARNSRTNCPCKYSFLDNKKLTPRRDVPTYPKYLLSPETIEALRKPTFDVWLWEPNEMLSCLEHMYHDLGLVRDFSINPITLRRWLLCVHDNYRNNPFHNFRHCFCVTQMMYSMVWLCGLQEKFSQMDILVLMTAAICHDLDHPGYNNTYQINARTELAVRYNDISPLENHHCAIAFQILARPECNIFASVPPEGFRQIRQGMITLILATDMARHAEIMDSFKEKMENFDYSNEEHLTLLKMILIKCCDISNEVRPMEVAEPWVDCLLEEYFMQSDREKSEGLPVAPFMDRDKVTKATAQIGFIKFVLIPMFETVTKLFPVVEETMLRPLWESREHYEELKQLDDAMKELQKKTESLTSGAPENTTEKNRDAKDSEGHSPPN
Conditions: read-out: IC50, PDE IX; cited from earlier work.

A further data set addresses T5, PDE X (Mus musculus, UniProt Q8CA95).
T5 construct: host or cells: heterologously expressed
T5 sequence (Q8CA95 1-790): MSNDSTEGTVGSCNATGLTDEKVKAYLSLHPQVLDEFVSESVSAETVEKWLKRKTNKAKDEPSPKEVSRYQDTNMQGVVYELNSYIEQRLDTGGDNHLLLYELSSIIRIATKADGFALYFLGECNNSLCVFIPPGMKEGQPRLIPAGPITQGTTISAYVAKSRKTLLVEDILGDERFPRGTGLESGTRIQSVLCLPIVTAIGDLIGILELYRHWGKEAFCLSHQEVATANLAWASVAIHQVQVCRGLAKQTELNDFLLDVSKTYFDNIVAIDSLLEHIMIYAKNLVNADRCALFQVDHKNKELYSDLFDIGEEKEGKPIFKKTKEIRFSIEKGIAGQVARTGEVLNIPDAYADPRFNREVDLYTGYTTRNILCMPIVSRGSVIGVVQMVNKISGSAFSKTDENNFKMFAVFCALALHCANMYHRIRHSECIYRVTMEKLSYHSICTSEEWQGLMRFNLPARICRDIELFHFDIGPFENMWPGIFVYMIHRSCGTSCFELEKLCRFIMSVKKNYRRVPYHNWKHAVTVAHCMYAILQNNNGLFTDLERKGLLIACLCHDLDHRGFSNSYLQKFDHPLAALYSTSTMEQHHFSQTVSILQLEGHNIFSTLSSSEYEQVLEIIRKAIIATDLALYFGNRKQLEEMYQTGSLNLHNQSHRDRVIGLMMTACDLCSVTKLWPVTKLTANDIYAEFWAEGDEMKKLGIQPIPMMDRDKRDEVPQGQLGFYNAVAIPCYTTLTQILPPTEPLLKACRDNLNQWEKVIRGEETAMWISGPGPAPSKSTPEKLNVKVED
Conditions: cited from earlier work.

In a further data set the test system is PDE I. Conditions: cited from earlier work.

T1 sequence (O00408 whole entry): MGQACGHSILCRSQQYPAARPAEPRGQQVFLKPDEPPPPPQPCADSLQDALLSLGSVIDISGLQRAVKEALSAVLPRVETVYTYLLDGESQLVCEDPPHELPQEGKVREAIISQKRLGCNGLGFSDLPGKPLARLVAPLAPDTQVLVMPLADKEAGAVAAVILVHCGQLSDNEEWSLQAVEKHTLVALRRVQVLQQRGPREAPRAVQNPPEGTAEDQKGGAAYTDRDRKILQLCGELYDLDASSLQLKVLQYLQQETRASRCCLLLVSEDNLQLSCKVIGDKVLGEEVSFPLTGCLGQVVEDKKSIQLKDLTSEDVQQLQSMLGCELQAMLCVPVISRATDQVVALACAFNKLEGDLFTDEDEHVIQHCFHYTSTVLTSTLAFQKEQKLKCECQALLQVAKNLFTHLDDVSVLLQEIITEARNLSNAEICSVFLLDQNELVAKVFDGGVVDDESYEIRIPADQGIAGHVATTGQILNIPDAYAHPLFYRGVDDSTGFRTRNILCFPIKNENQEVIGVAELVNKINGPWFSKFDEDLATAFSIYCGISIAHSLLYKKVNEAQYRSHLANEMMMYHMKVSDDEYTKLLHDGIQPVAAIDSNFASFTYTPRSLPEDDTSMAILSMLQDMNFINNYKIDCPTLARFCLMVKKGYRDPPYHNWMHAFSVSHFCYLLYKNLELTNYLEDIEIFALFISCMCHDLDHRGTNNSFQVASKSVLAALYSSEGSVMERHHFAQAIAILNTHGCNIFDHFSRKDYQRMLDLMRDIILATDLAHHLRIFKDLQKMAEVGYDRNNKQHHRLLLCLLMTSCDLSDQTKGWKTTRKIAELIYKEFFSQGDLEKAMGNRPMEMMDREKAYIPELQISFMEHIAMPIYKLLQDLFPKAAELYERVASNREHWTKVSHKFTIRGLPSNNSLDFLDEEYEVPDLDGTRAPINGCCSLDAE

Consider `CCCCCC[C@@H]([C@@H](C)O)n1cnc2c(N)ncnc21` (racemic) [EHNA], for which the IC50 was 0.5 to 1 µM on PDE II; more than 500 µM at PDE V; more than 100 µM at PDE VII; more than 100 µM at PDE VIII; more than 100 µM at PDE IX; 69 µM at PDE X.
Turning to `CC(C)Cn1c(=O)n(C)c(=O)c2[nH]cnc21` [IBMX, 3-isobutyl-1-methylxanthine], the IC50 in the data set with PDE I is 2 to 3 µM; at PDE II, 20 to 50 µM; at PDE V, 4 to 7 µM; at PDE VII, 2 to 8 µM; on PDE VIII, more than 200 µM; on PDE IX, more than 200 µM. The IC50 on PDE X is 2.6 µM.
As for `CCCCOc1cc(CC2CNC(=O)N2)ccc1OC` (stereo not drawn) [RO-20-1724, 4-(3-butoxy-4-methoxybenzyl)-2-imidazolidinone], the half-inhibitory concentration (IC50) in the data set on PDE I was 200 µM; at PDE II, more than 100 µM; at PDE V, 250 µM; at PDE VII it was more than 200 µM; on PDE VIII, more than 200 µM.
For `COc1ccc(C2CNC(=O)C2)cc1OC1CCCC1` (stereo not drawn) [Rolipram], the half-maximal inhibitory concentration (IC50) in the data set with PDE I was more than 150 µM; at PDE II, more than 100 µM; on PDE VII, more than 100 µM; on PDE VIII, more than 200 µM; on PDE IX it was more than 200 µM; at PDE X, 47 µM.
